Measured values published in patent publication US6066628A, “Non-iron metalloporphyrins and methods of use” (Emory University, priority 1998, dated 2000).
Read-outs that look alike come from different tables or passages of the source.

Experiments:
Y. enterocolitica = assay: microbe, parasite or virus in culture; format: cell-based
Ps. aeruginosa = assay: Disc diffusion sensitivity test; format: cell-based, Pseudomonas aeruginosa; conditions: disc ~50 μg MP; note: key: -: resistant; N: not determined
[1] = test system: Mycobacterium bovis (BCG); format: cell-based
M. smegmatis [2] = assay: Minimal bactericidal concentration; format: cell-based, Mycobacterium smegmatis; conditions: reduces plating efficiency more than 99.9%; minimal exposure to light
K. pneumoniae = assay: Disc diffusion sensitivity test; format: cell-based, Klebsiella pneumoniae
C. freundii = assay: Disc diffusion sensitivity test; format: cell-based, Citrobacter freundii
[3] = test system: Streptococcus pyogenes JRS4; format: cell-based
M tuber. H37Pa = assay: Disc diffusion sensitivity test; format: cell-based, Mycobacterium tuberculosis; conditions: disc ~50 μg MP
S. aureus = assay: Disc diffusion sensitivity test; format: cell-based, Staphylococcus aureus
Staphylococcus xylolus = assay: Disc diffusion sensitivity test; format: cell-based; conditions: 50 μg disc
S. crevisieae = assay: Disc diffusion sensitivity test; format: cell-based, Saccharomyces cerevisiae; conditions: S. cerevisiae; disc ~50 μg MP
[4] = test system: Y. enterocolitica fur (H1852); format: cell-based; conditions: 1 μg/ml
CaCO-2 cells = assay: Toxicity to mammalian cell monolayers; format: cell-based; conditions: 5 to 400 μg/ml; 24 to 48 hours
Description: To test for toxicity of MPs for mammalian cells, semiconfluent monolayers of four cell lines (MRC-5 primary human fibroblasts, Vero cells, MDCK cells and CaCO-2 cells) were incubated for 24 to 48 hours in the presence of 5, 25, 50, 250 and 400 μg/ml of Ga-PPIX dissolved in 0.02 M NaOH.

N. meningitidis = assay: Disc diffusion sensitivity test; format: cell-based; conditions: disc ~50 μg MP
M. smegmatis [5] = format: cell-based, Mycobacterium smegmatis
P. mirabills = assay: Disc diffusion sensitivity test; format: cell-based, Proteus mirabilis
MDCK cells = assay: Toxicity to mammalian cell monolayers; conditions: 0.5 mg in 1 mL DMEM; 24 hrs
S. pyogenes A = assay: Disc diffusion sensitivity test; format: cell-based, Streptococcus pyogenes; conditions: disc ~50 μg MP
Vero cells = assay: Toxicity to mammalian cell monolayers; conditions: 0.5 mg in 1 mL DMEM; 24 hrs
M. smegmatis [6] = assay: Disc diffusion sensitivity test; format: cell-based, Mycobacterium smegmatis; conditions: disc ~50 μg MP
E. coli = assay: Disc diffusion sensitivity test; format: cell-based, Escherichia coli

For `C=CC1=C(C)C2=Cc3c(C=C)c(C)c4[n]3[Ga][n]3c(c(C)c(CCC(=O)O)c3=CC3=NC(=C4)C(C)=C3CCC(=O)O)=CC1=N2` [Ga-PPIX, Gallium (III) protoporphyrin IX chloride], the “Minimal inhibitory concentration (MIC)” value (Y. enterocolitica) was 0.4, the “antibacterial activity” value (Y. enterocolitica) was “inhibitory” and the “sensitivity of hemR mutant” value (Y. enterocolitica) was “resistant to relatively high concentrations”. For the same compound, the “sensitivity of hemT, hemU, hemV mutants” value (Y. enterocolitica) was “fully sensitive”, the MIC (Y. enterocolitica; in µg/mL) was 0.4 and the “diameter (mm) of the inhibition zone” value (Ps. aeruginosa) was “-”. The MIC ([1]; M. bovis (BCG) (Table 4)) was 0.4 µg/mL, the MIC ([1]; M. bovis (BCG), two weeks (Table 5)) was 0.4 µg/mL and the “Minimal bactericidal concentration (MBC)” value (M. smegmatis [2]) was 10. The “sensitivity (preliminary experiments)” value (M. avium; M. avium) was “sensitive”, the MIC (M. avium; M. avium ATCC15769 (Table 5)) was 1 µg/mL and the “diameter (mm) of the inhibition zone” value (K. pneumoniae; K. pneumoniae, disc ~50 μg MP) was 22 mm. The “sensitive strains / strains tested (inhibition zones larger or equal 20 mm)” value (K. pneumoniae; Klebsiella pneumoniae, 50 μg disc) was 9/13, the “diameter (mm) of the inhibition zone” value (C. freundii; C. freundii, disc ~50 μg MP) was 22 mm and the “sensitive strains / strains tested (inhibition zones larger or equal 20 mm)” value (C. freundii; Citrobacter freundii, 50 μg disc) was 4/4. For the same compound, the sensitivity [3] was “resistant”, the “diameter (mm) of the inhibition zone” value (M tuber. H37Pa) was 36 mm and the “diameter (mm) of the inhibition zone” value (S. aureus; S. aureus, disc ~50 μg MP) was 22 mm. The “sensitive strains / strains tested (inhibition zones larger or equal 20 mm)” value (S. aureus; Staphylococcus aureus, 50 μg disc) was 9/9, the “sensitive strains / strains tested (inhibition zones larger or equal 20 mm)” value (Staphylococcus xylolus) was 1/1 and the spontaneous resistance (Gram-negative bacteria) was “gave rise to spontaneous resistant colonies”. The “diameter (mm) of the inhibition zone” value (S. crevisieae) was “-”, the “growth in presence of Ga-PPIX” value [4] was “completely prevented growth” and the “detachment or rounding of cells” value (CaCO-2 cells) was “No detachment or rounding of cells was noticed”. For the same compound, the “diameter (mm) of the inhibition zone” value (N. meningitidis) was 24 mm, the “lower MIC in low iron media” value (M. smegmatis [5]; LB+0.2 mM Desferal) was 2 fold and the “antibacterial activity” value (M. smegmatis [5]; M. smegmatis) was “inhibitory”. The MIC (M. smegmatis [5]; M. smegmatis LR222 (Table 4)) was 0.5 µg/mL, the “Minimal inhibitory concentration (MIC)” value (M. smegmatis [5]; M. smegmatis LR222, LB + Tween 80 (Table 2)) was 0.4 µg/mL and the MIC (M. smegmatis [5]; M. smegmatis LR222, dark (Table 10)) was 0.4 µg/mL. The “diameter (mm) of the inhibition zone” value (P. mirabills; P. mirabilis, disc ~50 μg MP) was 21 mm, the “sensitive strains / strains tested (inhibition zones larger or equal 20 mm)” value (P. mirabills; Proteus mirabilis, 50 μg disc) was 2/2 and the “cytotoxic and/or morphological changes” value (MDCK cells) was “No visible cytotoxic and/or morphological changes were observed”. The “diameter (mm) of the inhibition zone” value (S. pyogenes A) was “-”, the “cytotoxic and/or morphological changes” value (Vero cells) was “No visible cytotoxic and/or morphological changes were observed” and the “diameter (mm) of the inhibition zone” value (M. smegmatis [6]) was 25 mm. For the same compound, the “diameter (mm) of the inhibition zone” value (E. coli; E. coli, disc ~50 μg MP) was 24 mm and the “sensitive strains / strains tested (inhibition zones larger or equal 20 mm)” value (E. coli; Escherichia coli, 50 μg disc) was 16/18.
